Assay results taken from patent publication EP0003359A1, “Specific optical isomers of 2-aminoethyl-1,4-benzodioxanes, process for their preparation and their pharmaceutical compositions” (CIBA-GEIGY AG, priority 1978, dated 1979).
Where a name gives a salt, the structure may show the parent alone.

What was measured:
[1] = test system: anesthätisierte, bilateral vagotomisierte Bastardhunde; test: Bradycardic effect in anaesthetised, bilaterally vagotomised dogs with heart rate raised by electrical stimulation; assay type: in vivo; conditions: Canis lupus familiaris, intravenous, read-out: intravenöse Dosis, nach der die bradykardischen Wirkungen registriert werden können
From the text: (§1) Die Verbindungen der Erfindung zeigen wertvolle pharmakologische Eigenschaften, in erster Linie hypotensive, antihypertensive und bradykardische Wirkungen, welche unter anderem durch ihre a- und ß-adrenergischblockierenden, vasodilatorischen und ihre hemmenden Effekte auf das zentrale sympatische Nervensystem zustandekommen. Diese Wirkungen können in Tierversuchen, vorzugsweise an Säugetieren, wie Ratten, Katzen oder Hunden, als Testobjekte nachgewiesen werden. Die Tiere können normotensiv oder hypertensiv, z.B. genetisch hypertensive Ratten sein. Die genannten Verbindungen können ihnen enteral oder parenteral, vorzugsweise oral oder intravenös, z.B. durch Gelatine-Kapseln oder in Form von Stärke enthaltenden Suspensionen bzw. wässerigen Lösungen, verabreicht werden. Die verwendete Dosis kann in einem Bereich von ungefähr zwischen 0,01 und 50 mg/kg/Tag, vorzugsweise ungefähr O,1 und 10 mg/kg/Tag, insbesondere ungefähr 1 und 5 mg/kg/Tag liegen. Die blutdrucksenkende Wirkung wird entweder direkt mit einem Katheter, der z.B. in die femurale Arterie des Hundes eingeführt ist, oder indirekt durch Sphygmomanometrie am Rattenschwanz, und einem Uebertragungsinstrument, welches den Blutdruck vor und nach der Verabreichung des Wirkstoffes in mm Hg angibt, registriert. […]

[2] = test system: genetisch hypertensive Ratten; test: Blood pressure lowering in hypertensive rats (indirect sphygmomanometry on the tail); assay type: in vivo; conditions: perorale Dosen von 5 mg/kg/Tag und darunter, preferably as hydrochloride
From the text: as §1

C[C@H](CCc1ccccc1)NC[C@H](O)[C@H]1COc2ccccc2O1 [ℓ-erythro-2R-[2-(4-Phenyl-2R-butylamino)-1S-hydroxyäthyl]-1,4-benzodioxan-hydrochlorid]
minimal effective dose [1]: 0.03 mg/kg | blutdrucksenkende Wirkung [2]: sehr wirksam
